Source: patent US7001587B2, “Measurement of protein synthesis rates in humans and experimental systems by use of isotopically labeled water” (The Regents of the University of California, priority 2001, dated 2006)
Read-outs that look alike come from different tables or passages of the source. Each block holds one compound with its values, some of them ahead of it.

Tests used:
bone collagen = assay: Bone collagen synthesis rate (ks) in ovariectomized rats by ^2H2O labeling; type: in vivo; details: ovariectomized female rats, pellet 200 μg
Experimental: The fractional synthesis or replacement rate (ks) of proteins or peptides may be determined by application of the continuous labeling, precursor-product formula: [formula] where A^∞ represents the asymptotic or plateau value of the amino acid I.E. (isotopic enrichment) possible under the labeling conditions present and AA(protein)t represents the measured protein-bound amino acid at time t.
Ovariectomy was performed in adult female rodents as described (9). After allowing 3 weeks for recovery from surgery, the rats received either estradiol by subcutaneous pellet (200 μg) or sham placement of pellet. ^2H2O labeling was initiated at the time of pellet placement and continued for 2 weeks, at which time the animals were sacrificed and bone was collected.
Rats were killed every 1–2 weeks during a 10-week period of ^2H2O administration. The rear left femur was collected and was dissected free of soft tissue. Bone marrow and trabecular bone were removed using a needle with sharp cutting surface (ref: Bone 2000). After washing 3 times with water, the bone was splintered and powdered under liquid N2 in a Spex mill and defatted with chloroform:methanol (1:1, v:v). After drying, the powdered bone was subjected to acid hydrolysis in 6N HCl (110° C., 24 hr). The free AA were dried under N2 gas and derivatized for analysis by gas chromatography/mass spectrometry (GC/MS). […]

[1] = In vitro ^2H label exchange / label stability studies; type: physicochemical; details: acid-hydrolysis conditions used for proteins (6N HCl)
[2] = cited from earlier work
human subjects = assay: Tolerability of daily oral ^2H2O in human subjects; type: in vivo; details: human subjects (healthy and HIV/AIDS) drinking 50–100 ml daily for 10–12 weeks
rats = assay: Tolerability of 4% ^2H2O drinking water in rats; type: in vivo; details: rats given 4% ^2H2O as drinking water
[3] = tested on: humans and experimental animals; assay: Long-term maintenance of high body water ^2H2O enrichment, toxicity; type: in vivo; details: 1–5% of total body water labeled, weeks or months, >100 people and experimental animals
Text: Relatively high body water enrichments of ^2H2O (e.g., 1–5% of the total body water is labeled) have been achieved using the techniques of the invention. […] This finding in a large number of human subjects (>100 people) is contrary to previous concerns about vestibular toxicities at high doses of ^2H2O. Applicants have discovered that as long as rapid changes in body water enrichment are prevented (e.g., by initial administration in small, divided doses), high body water enrichments of ^2H2O can be maintained with no toxicities. Previous dosing of ^2H2O in humans, for other purposes (e.g., measurement of fatty acid or cholesterol synthesis or gluconeogenesis) have typically used lower doses and achieved lower body water enrichment. The low expense of commercially available ^2H2O allows long-term maintenance of enrichments in the 1–5% range at relatively low expense (e.g., lower cost for 2 months labeling at 2% ^2H2O enrichment, and thus 7–8% enrichment in the alanine precursor pool (FIGS. 2A–B), than for 12 hours labeling of ^2H-leucine at 10% free leucine enrichment, and thus 7–8% enrichment in leucine precursor pool for that period).

[4] = rat, in vivo
Text: The ^2H2O labeling protocol consisted of an initial intraperitoneal (ip) injection of 99.9% ^2H2O, to achieve ca. 2.5% body water enrichment (assuming total body water to be 60% of body weight) followed by administration of 4% ^2H2O in drinking water. For labeling of rats in utero, 4% drinking water was started while the male and female adult rats were housed together for mating (i.e. before pregnancy) and the 4% ^2H2O drinking water was continued through the pregnancy and post-delivery period.
The ^2H2O enrichment of body water was measured by a GC/MS technique that we have described elsewhere (Neese et al., Analytic Biochem 298(2):189–95, 2001). Briefly, the hydrogen atoms from water (10 μL) were chemically transferred to acetylene by reaction with calcium carbide in a sealed vial. Acetylene gas was then derivatized by injection into another sealed vial containing 0.5 ml Br2 (0.1 mM) dissolved in CCl4, followed by quenching of remaining Br2 with cyclohexene. The resulting tetrabromoethane was dissolved in CCl4 and was analyzed by GC/MS, using a DB-225 column (30 m, J&W, Folsom, Calif.) at 180° C., with methane chemical ionization (C.I.). The ions at m/z 265 and 266 were analyzed using selected ion monitoring. These ions represent the M0 and M1 mass isotopomers of the C2H2Br3^+ fragment (^79Br^79Br^81Br isotopologue). The enrichments of ^2H2O in water samples were calculated by comparison to standard curves generated by mixing 100% ^2H2O with unlabeled H2O in known proportions (Neese et al., Analytic Biochem 298(2):189–95, 2001).

Compound: C[C@]12CC[C@@H]3c4ccc(O)cc4CC[C@H]3[C@@H]1CC[C@@H]2O [estrogen, estradiol]
ks of bone collagen (bone collagen; 2 weeks ^2H2O labeling): 0.008 day⁻¹
decrease in ks of bone collagen (bone collagen; 2 weeks, compared to vehicle-implanted ovariectomized rats): 35–40%

loss of ^2H-label [1]: no loss of ^2H-label was observed
Compound: [2H]C([2H])(N)C(=O)O [^2H2-labeled glycine]

Compound: ^2H-leucine
half-life ([2]; in vivo): < 30 min

Compound: ^2H-glucose
half-life ([2]; in vivo): 20 min

loss of ^2H-label [1]: no loss of ^2H-label was observed
Compound: [2H]C(C)(N)C(=O)O (stereo not drawn) [^2H1-labeled alanine]

Compound: [2H]O[2H] [^2H2O]
adverse effects or toxicities (human subjects): No adverse effects or toxicities were observed
growth and signs of toxicity (rats): grew normally and exhibited no signs of toxicity
toxicity at maintained body water enrichment [3]: without any evidence of toxicity
Body ^2H2O Enrichment (%) [4]: 2.6%
measured ^2H2O enrichment in maternal blood [4]: 2.4%
half-life ([2]; turnover of body water pool): 14400 to 20200 min
